We go through 19 molecules from patent US12565505B2, “mTORC modulators and uses thereof” (Aeovian Pharmaceuticals, Inc., priority 2019, dated 2026).

One test addresses T1, mTORC2 (Homo sapiens, UniProt P42345+P62942).
T1 construct: endogenous in cells; host or cells: PC3 cells (human prostate adenocarcinoma)
Nature of the test: Inhibition assay for mTORC2: phosphorylation of pAkt at Ser473, AlphaLISA SureFire in PC3 cells. The class given is cell-based. Particulars: PC3 cells, 24 hours treatment, analogs substituted at C40 and C16 (C16 diastereomer mixtures not isolated), read-out: pIC50 mTORC2 (converted). In short, it runs like this:
(§1)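 Human prostate adenocarcinoma PC3 cells treated with compounds for 24 h. AlphaLISA SureFire read-out of pS6K Thr389 for mTORC1 and pAkt Ser473 for mTORC2, from which IC50s were derived.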

Another test addresses T2, mTORC1 (Homo sapiens, UniProt P42345+P62942).
T2 construct: endogenous in cells; host or cells: PC3 cells (human prostate adenocarcinoma)
Nature of the test: Inhibition assay for mTORC1: phosphorylation of pS6K at Thr389, AlphaLISA SureFire in PC3 cells. The class given is cell-based. The conditions noted are these: PC3 cells, 24 hours treatment, pS6K Thr389; analogs substituted at C40 and C16 (C16 diastereomer mixtures not isolated); read-out: pIC50 mTORC1 (converted). The gist of the method:
as §1

Bounds are passed on as bounds.

Consider `CO[C@@H]1C[C@H](C[C@@H](C)[C@@H]2CC(=O)[C@H](C)/C=C(\C)[C@@H](O)[C@@H](OC)C(=O)[C@H](C)C[C@H](C)/C=C/C=C/C=C(\C)C(OCCc3ccccc3)C[C@@H]3CC[C@@H](C)[C@@](O)(O3)C(=O)C(=O)N3CCCCC3C(=O)O2)CC[C@H]1OCCCO` (stereo partly drawn) [Compound 94, (1R,9S,12SR,15R,16E,18R,19R,21R,23S,24E,26E,28E,32S,35R)-1,18-dihydroxy-12-[(1R)-2-[(1S,3R,4R)-4-(3-hydroxypropoxy)-3-methoxy-cyclohexyl]-1-methyl-ethyl]-19-methoxy-15,17,21,23,29,35-hexamethyl-30-(2-phenylethoxy)-11,36-dioxa-4-azatricyclo[30.3.1.0^4,9]hexatriaconta-16,24,26,28-tetraene-2,3,10,14,20-pentone], for which the IC50 on mTORC2 is 1000 to 10000 nM; at mTORC1, below 0.316 nM.
The matching figures for `CO[C@@H]1C[C@H](C[C@@H](C)[C@@H]2CC(=O)[C@H](C)/C=C(\C)[C@@H](O)[C@@H](OC)C(=O)[C@H](C)C[C@H](C)/C=C/C=C/C=C(\C)C(OCCc3ccccc3)C[C@@H]3CC[C@@H](C)[C@@](O)(O3)C(=O)C(=O)N3CCCCC3C(=O)O2)CC[C@H]1OC(=O)N(C)CCCN(C)C` (some centres unmarked) [Compound 95]: below 1000 nM and below 0.316 nM.
For the molecule `CO[C@@H]1C[C@H](C[C@@H](C)[C@@H]2CC(=O)[C@H](C)/C=C(\C)[C@@H](O)[C@@H](OC)C(=O)[C@H](C)C[C@H](C)/C=C/C=C/C=C(\C)C(OC(C)C)C[C@@H]3CC[C@@H](C)[C@@](O)(O3)C(=O)C(=O)N3CCCCC3C(=O)O2)CC[C@H]1OCCCc1ccccc1` (some centres unmarked) [Compound 96], the values for the IC50 at mTORC2 and at mTORC1 were above 10000 nM and above 3.16 nM, respectively.
For `CO[C@@H]1C[C@H](C[C@@H](C)[C@@H]2CC(=O)[C@H](C)/C=C(\C)[C@@H](O)[C@@H](OC)C(=O)[C@H](C)C[C@H](C)/C=C/C=C/C=C(\C)C(OCCc3ccccc3)C[C@@H]3CC[C@@H](C)[C@@](O)(O3)C(=O)C(=O)N3CCCCC3C(=O)O2)CC[C@H]1OCCCN1CCN(C)CC1` (some centres unmarked) [Compound 97], the IC50 on mTORC2 is below 1000 nM; at mTORC1, below 0.316 nM.
The matching figures for `CO[C@@H]1C[C@H](C[C@@H](C)[C@@H]2CC(=O)[C@H](C)/C=C(\C)[C@@H](O)[C@@H](OC)C(=O)[C@H](C)C[C@H](C)/C=C/C=C/C=C(\C)C(OCC(C)(C)O)C[C@@H]3CC[C@@H](C)[C@@](O)(O3)C(=O)C(=O)N3CCCCC3C(=O)O2)CC[C@H]1OCCCO` (some centres unmarked) [Compound 98]: 1000 to 10000 nM and 0.316 to 3.16 nM.
As to `CO[C@@H]1C[C@H](C[C@@H](C)[C@@H]2CC(=O)[C@H](C)/C=C(\C)[C@@H](O)[C@@H](OC)C(=O)[C@H](C)C[C@H](C)/C=C/C=C/C=C(\C)C(OCCc3ccccc3)C[C@@H]3CC[C@@H](C)[C@@](O)(O3)C(=O)C(=O)N3CCCCC3C(=O)O2)CC[C@H]1OCCO` (some centres unmarked) [Compound 99], the IC50 on mTORC2 was 1000 to 10000 nM; at mTORC1 it was below 0.316 nM.
The matching figures for `CO[C@@H]1C[C@H](C[C@@H](C)[C@@H]2CC(=O)[C@H](C)/C=C(\C)[C@@H](O)[C@@H](OC)C(=O)[C@H](C)C[C@H](C)/C=C/C=C/C=C(\C)C(OCCc3ccccc3)C[C@@H]3CC[C@@H](C)[C@@](O)(O3)C(=O)C(=O)N3CCCCC3C(=O)O2)CC[C@H]1OCCCN1CCCCC1` (some centres unmarked) [Compound 101]: below 1000 nM and below 0.316 nM.
Regarding `COCCCCOC1C[C@@H]2CC[C@@H](C)[C@@](O)(O2)C(=O)C(=O)N2CCCCC2C(=O)O[C@H]([C@H](C)C[C@@H]2CC[C@@H](OCCO)[C@H](OC)C2)CC(=O)[C@H](C)/C=C(\C)[C@@H](O)[C@@H](OC)C(=O)[C@H](C)C[C@H](C)/C=C/C=C/C=C/1C` (some centres unmarked) [Compound 102], the IC50 was 1000 to 10000 nM on mTORC2 and below 0.316 nM on mTORC1.
On to `CO[C@@H]1C[C@H](C[C@@H](C)[C@@H]2CC(=O)[C@H](C)/C=C(\C)[C@@H](O)[C@@H](OC)C(=O)[C@H](C)C[C@H](C)/C=C/C=C/C=C(\C)C(OCCc3ccccc3)C[C@@H]3CC[C@@H](C)[C@@](O)(O3)C(=O)C(=O)N3CCCCC3C(=O)O2)CC[C@H]1OC(=O)NCCN(C)C` (stereo partly drawn) [Compound 104, [(1R,2R,4S)-4-[(2R)-2-[(1R,9S,12S,15R,16E,18R,19R,21R,23S,24E,26E,28E,32S,35R)-1,18-dihydroxy-19-methoxy-15,17,21,23,29,35-hexamethyl-2,3,10,14,20-pentaoxo-30-(2-phenylethoxy)-11,36-dioxa-4-azatricyclo[30.3.1.0^4,9]hexatriaconta-16,24,26,28-tetraen-12-yl]propyl]-2-methoxy-cyclohexyl] N-[2-(dimethylamino)ethyl]carbamate], for which the IC50 on mTORC2 is below 1000 nM; on mTORC1, below 0.316 nM.
For `CO[C@@H]1C[C@H](C[C@@H](C)[C@@H]2CC(=O)[C@H](C)/C=C(\C)[C@@H](O)[C@@H](OC)C(=O)[C@H](C)C[C@H](C)/C=C/C=C/C=C(\C)C(OCCc3ccccc3)C[C@@H]3CC[C@@H](C)[C@@](O)(O3)C(=O)C(=O)N3CCCCC3C(=O)O2)CC[C@H]1OC(=O)N(C)CCO` (some centres unmarked) [Compound 105], in that order: below 1000 nM and below 0.316 nM.
For `CO[C@@H]1C[C@H](C[C@@H](C)[C@@H]2CC(=O)[C@H](C)/C=C(\C)[C@@H](O)[C@@H](OC)C(=O)[C@H](C)C[C@H](C)/C=C/C=C/C=C(\C)C(OCCC3CCOCC3)C[C@@H]3CC[C@@H](C)[C@@](O)(O3)C(=O)C(=O)N3CCCCC3C(=O)O2)CC[C@H]1OCCCO` (some centres unmarked) [Compound 106], the IC50 at mTORC2 is 1000 to 10000 nM; on mTORC1, 0.316 to 3.16 nM.
Take `CO[C@@H]1C[C@H](C[C@@H](C)[C@@H]2CC(=O)[C@H](C)/C=C(\C)[C@@H](O)[C@@H](OC)C(=O)[C@H](C)C[C@H](C)/C=C/C=C/C=C(\C)C(OCCc3ccccc3)C[C@@H]3CC[C@@H](C)[C@@](O)(O3)C(=O)C(=O)N3CCCCC3C(=O)O2)CC[C@H]1OCCCN1CCOCC1` (some centres unmarked) [Compound 108]: the IC50 at mTORC2 was below 1000 nM; on mTORC1 it was below 0.316 nM.
For the molecule `CO[C@@H]1C[C@H](C[C@@H](C)[C@@H]2CC(=O)[C@H](C)/C=C(\C)[C@@H](O)[C@@H](OC)C(=O)[C@H](C)C[C@H](C)/C=C/C=C/C=C(\C)C(OCCc3ccccc3)C[C@@H]3CC[C@@H](C)[C@@](O)(O3)C(=O)C(=O)N3CCCCC3C(=O)O2)CC[C@H]1OC(=O)N(C)CCN(C)C` (some centres unmarked) [Compound 109], the IC50 on mTORC2 was below 1000 nM; at mTORC1, below 0.316 nM.
As for `CO[C@@H]1C[C@H](C[C@@H](C)[C@@H]2CC(=O)[C@H](C)/C=C(\C)[C@@H](O)[C@@H](OC)C(=O)[C@H](C)C[C@H](C)/C=C/C=C/C=C(\C)C(OCCc3ccccc3)C[C@@H]3CC[C@@H](C)[C@@](O)(O3)C(=O)C(=O)N3CCCCC3C(=O)O2)CC[C@H]1OC(=O)NCCc1c[nH]cn1` (some centres unmarked) [Compound 110], the IC50 at mTORC2 was below 1000 nM; at mTORC1 it was below 0.316 nM.
As for `CO[C@@H]1C[C@H](C[C@@H](C)[C@@H]2CC(=O)[C@H](C)/C=C(\C)[C@@H](O)[C@@H](OC)C(=O)[C@H](C)C[C@H](C)/C=C/C=C/C=C(\C)C(OCCc3ccccc3)C[C@@H]3CC[C@@H](C)[C@@](O)(O3)C(=O)C(=O)N3CCCCC3C(=O)O2)CC[C@H]1OC(=O)NCCO` (stereo partly drawn) [Compound 111, [(1R,2R,4S)-4-[(2R)-2-[(1R,9S,12S,15R,16E,18R,19R,21R,23S,24E,26E,28E,32S,35R)-1,18-dihydroxy-19-methoxy-15,17,21,23,29,35-hexamethyl-2,3,10,14,20-pentaoxo-30-(2-phenylethoxy)-11,36-dioxa-4-azatricyclo[30.3.1.0^4,9]hexatriaconta-16,24,26,28-tetraen-12-yl]propyl]-2-methoxy-cyclohexyl] N-(2-hydroxyethyl)carbamate], the values for the IC50 at mTORC2 and on mTORC1 were below 1000 nM and below 0.316 nM, respectively.
For the molecule `CO[C@@H]1C[C@H](C[C@@H](C)[C@@H]2CC(=O)[C@H](C)/C=C(\C)[C@@H](O)[C@@H](OC)C(=O)[C@H](C)C[C@H](C)/C=C/C=C/C=C(\C)C(OCCc3ccccc3)C[C@@H]3CC[C@@H](C)[C@@](O)(O3)C(=O)C(=O)N3CCCCC3C(=O)O2)CC[C@H]1OC(=O)N(CCO)CCO` (stereo partly drawn) [Compound 112, [(1R,2R,4S)-4-[(2R)-2-[(1R,9S,12S,15R,16E,18R,19R,21R,23S,24E,26E,28E,32S,35R)-1,18-dihydroxy-19-methoxy-15,17,21,23,29,35-hexamethyl-2,3,10,14,20-pentaoxo-30-(2-phenylethoxy)-11,36-dioxa-4-azatricyclo[30.3.1.0^4,9]hexatriaconta-16,24,26,28-tetraen-12-yl]propyl]-2-methoxy-cyclohexyl] N,N-bis(2-hydroxyethyl)carbamate], the IC50 at mTORC2 was below 1000 nM; at mTORC1, below 0.316 nM.
As for `CO[C@@H]1C[C@H](C[C@@H](C)[C@@H]2CC(=O)[C@H](C)/C=C(\C)[C@@H](O)[C@@H](OC)C(=O)[C@H](C)C[C@H](C)/C=C/C=C/C=C(\C)C(OCCc3ccccc3)C[C@@H]3CC[C@@H](C)[C@@](O)(O3)C(=O)C(=O)N3CCCCC3C(=O)O2)CC[C@H]1OC(=O)NCCN1CCCCC1` (some centres unmarked) [Compound 113], the IC50 at mTORC2 is below 1000 nM; at mTORC1, below 0.316 nM.
As to `CO[C@@H]1C[C@H](C[C@@H](C)[C@@H]2CC(=O)[C@H](C)/C=C(\C)[C@@H](O)[C@@H](OC)C(=O)[C@H](C)C[C@H](C)/C=C/C=C/C=C(\C)C(OCCc3ccccc3)C[C@@H]3CC[C@@H](C)[C@@](O)(O3)C(=O)C(=O)N3CCCCC3C(=O)O2)CC[C@H]1OC(=O)NCCn1cnnn1` (some centres unmarked) [Compound 114], the IC50 on mTORC2 was below 1000 nM; at mTORC1, below 0.316 nM.
`CO[C@@H]1C[C@H](C[C@@H](C)[C@@H]2CC(=O)[C@H](C)/C=C(\C)[C@@H](O)[C@@H](OC)C(=O)[C@H](C)C[C@H](C)/C=C/C=C/C=C(\C)C(OCc3ccccc3)C[C@@H]3CC[C@@H](C)[C@@](O)(O3)C(=O)C(=O)N3CCCCC3C(=O)O2)CC[C@H]1OC(=O)NCCN1CCOCC1` (some centres unmarked) [Compound 115]: the IC50 on mTORC2 is below 1000 nM; at mTORC1, below 0.316 nM.
